Measurements from PubChem BioAssay AID330 (DTP/NCI, 2004).
Values joined by “and” are separate entries in the source; they are usually repeats but may differ in a detail not shown here. Identical values can stand only once. Inconclusive results and toxic doses are left out. Square brackets hold non-standard residues; d marks the D form. Peptide text beside a SMILES is read from it. Ac5c = NC1(C(=O)O)CCCC1

System: P388 leukemia ip, CD2F1 mice, survival T/C
Assay: NCI In Vivo Anticancer Drug Screen. Data for tumor model P388 Leukemia (intraperitoneal) in CD2F1 (CDF1) mice
Conditions: endpoint: median survival time, higher = longer survival
Procedure, shortened: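 Mice carrying the transplanted tumor received test compound or vehicle. Survival was recorded in each group, and the value is the treated-group measurement divided by that of the vehicle-treated control group.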

[1] = dose: 25.0 mg/kg/injection, schedule: Q01DX009 (ip), vehicle: saline with Tween-80
[2] = dose: 50.0 mg/kg/injection, schedule: Q01DX009 (ip), vehicle: saline with Tween-80
[3] = dose: 100.0 mg/kg/injection, schedule: Q01DX009 (ip), vehicle: saline with Tween-80
[4] = dose: 200.0 mg/kg/injection, schedule: Q01DX009 (ip), vehicle: saline with Tween-80
[5] = dose: 50.0 mg/kg/injection, schedule: Q01DX005 (ip), vehicle: Klucel (hydroxypropylcellulose) (HPC)
[6] = dose: 100.0 mg/kg/injection, schedule: Q01DX005 (ip), vehicle: Klucel (hydroxypropylcellulose) (HPC)
[7] = dose: 200.0 mg/kg/injection, schedule: Q01DX005 (ip), vehicle: Klucel (hydroxypropylcellulose) (HPC)
[8] = dose: 100.0 mg/kg/injection, schedule: Q04DX003 (ip), vehicle: saline
[9] = dose: 200.0 mg/kg/injection, schedule: Q04DX003 (ip), vehicle: saline
[10] = dose: 400.0 mg/kg/injection, schedule: Q04DX003 (ip), vehicle: saline
[11] = dose: 50.0 mg/kg/injection, schedule: Q01DX009 (ip), vehicle: saline

O=C1c2ccccc2C(=O)N1CN1C(=O)c2ccccc2C1=O
T/C [1]: 95 % of control
T/C [2]: 115 % of control and 90 % of control
T/C [3]: 90 % of control
T/C [4]: 100 % of control

COc1cccc2c1C(=O)c1c(O)c3c(c(O)c1C2=O)C[C@@](O)(/C(C)=N/NC(=O)c1ccc(-c2ccccc2)cc1)C[C@@H]3OC1CC(N)C(O)C(C)O1 (some centres not stated)
T/C (dose: 0.12 mg/kg/injection, schedule: Q01DX009 (ip), vehicle: water): 107 % of control
T/C (dose: 0.5 mg/kg/injection, schedule: Q01DX009 (ip), vehicle: water): 151 % of control
T/C (dose: 1.0 mg/kg/injection, schedule: Q01DX009 (ip), vehicle: water): 157 % of control
T/C (dose: 2.0 mg/kg/injection, schedule: Q01DX009 (ip), vehicle: water): 163 % of control and 169 % of control
T/C (dose: 3.13 mg/kg/injection, schedule: Q01DX009 (ip), vehicle: water): 192 % of control
T/C (dose: 4.0 mg/kg/injection, schedule: Q01DX009 (ip), vehicle: water): 190 % of control
T/C (dose: 6.0 mg/kg/injection, schedule: Q04DX003 (ip), vehicle: water): 106 % of control
T/C (dose: 6.25 mg/kg/injection, schedule: Q01DX001 (ip), vehicle: water): 151 % of control
T/C (dose: 6.25 mg/kg/injection, schedule: Q01DX009 (ip), vehicle: water): 109 % of control
T/C (dose: 8.0 mg/kg/injection, schedule: Q01DX009 (ip), vehicle: water): 98 % of control and 91 % of control
T/C (dose: 12.5 mg/kg/injection, schedule: Q01DX001 (ip), vehicle: water): 163 % of control
T/C (dose: 24.0 mg/kg/injection, schedule: Q04DX003 (ip), vehicle: water): 165 % of control
T/C (dose: 25.0 mg/kg/injection, schedule: Q01DX001 (ip), vehicle: water): 116 % of control
T/C (dose: 96.0 mg/kg/injection, schedule: Q04DX003 (ip), vehicle: water): 98 % of control

C1=CCC2COCC2C1 (configuration not stated)
T/C [2]: 98 % of control
T/C [3]: 102 % of control
T/C [4]: 100 % of control

ONc1cnc2ccccc2n1
T/C [5]: 103 % of control
T/C [6]: 100 % of control
T/C [7]: 100 % of control

COc1ccc(NC(=O)N(C)C)cc1OC
T/C [8]: 101 % of control
T/C [9]: 107 % of control
T/C [10]: 105 % of control

OCC(F)(F)C(F)(F)C(F)(F)CO
T/C [8]: 100 % of control
T/C [9]: 100 % of control
T/C [10]: 100 % of control

CCNC(=O)C12CCC(C)(C(=O)O1)C2(C)C (configuration not stated)
T/C (dose: 60.0 mg/kg/injection, schedule: Q01DX005 (ip), vehicle: saline): 93 % of control
T/C (dose: 120.0 mg/kg/injection, schedule: Q01DX005 (ip), vehicle: saline): 98 % of control
T/C (dose: 240.0 mg/kg/injection, schedule: Q01DX005 (ip), vehicle: saline): 101 % of control

COc1cccc2c1OC1(N3CCOCC3)CCCCC1C2C[N+](=O)[O-] (configuration not stated)
T/C [2]: 90 % of control
T/C [3]: 93 % of control
T/C [4]: 89 % of control

COc1cc(/C=C/C(=O)N2CCN(CC(=O)N3CCCC3)CC2)cc(OC)c1OC
T/C [11]: 100 % of control
T/C (dose: 100.0 mg/kg/injection, schedule: Q01DX009 (ip), vehicle: saline): 94 % of control
T/C (dose: 200.0 mg/kg/injection, schedule: Q01DX009 (ip), vehicle: saline): 95 % of control

FC(F)(F)c1ccccc1NC(=S)N1CCN(c2ccccc2)CC1
T/C (dose: 50.0 mg/kg/injection, schedule: Q01DX009 (ip), vehicle: gum acacia): 109 % of control
T/C (dose: 100.0 mg/kg/injection, schedule: Q01DX009 (ip), vehicle: gum acacia): 100 % of control
T/C (dose: 200.0 mg/kg/injection, schedule: Q01DX009 (ip), vehicle: gum acacia): 92 % of control

ClC(Cl)=C(Cl)C(Cl)=C(Cl)Cl
T/C (dose: 50.0 mg/kg/injection, schedule: Q01DX001 (ip), vehicle: saline): 108 % of control
T/C (dose: 100.0 mg/kg/injection, schedule: Q01DX001 (ip), vehicle: saline): 100 % of control

Cc1cc2c(c(=O)o1)C1=S(SC(c3ccccc3)=C1)S2 (configuration not stated)
T/C (dose: 100.0 mg/kg/injection, schedule: Q04DX002 (ip), vehicle: saline with Tween-80): 90 % of control
T/C (dose: 200.0 mg/kg/injection, schedule: Q04DX002 (ip), vehicle: saline with Tween-80): 99 % of control
T/C (dose: 400.0 mg/kg/injection, schedule: Q04DX002 (ip), vehicle: saline with Tween-80): 105 % of control

CC(=O)[O][Hg][CH]1C2CC3C(C2OC(C)=O)C31 (configuration not stated)
T/C (dose: 6.25 mg/kg/injection, schedule: Q01DX009 (ip), vehicle: saline with Tween-80): 105 % of control
T/C (dose: 12.5 mg/kg/injection, schedule: Q01DX009 (ip), vehicle: saline with Tween-80): 112 % of control

CC(C)C12C=CC(C)(CC1)OO2 (configuration not stated)
T/C [1]: 104 % of control
T/C [2]: 100 % of control and 102 % of control

CSc1n[nH]c(N)c1C(N)=O
T/C (dose: 100.0 mg/kg/injection, schedule: Q01DX001 (ip), vehicle: saline with Tween-80): 107 % of control
T/C (dose: 200.0 mg/kg/injection, schedule: Q01DX001 (ip), vehicle: saline with Tween-80): 100 % of control
T/C (dose: 400.0 mg/kg/injection, schedule: Q01DX001 (ip), vehicle: saline with Tween-80): 111 % of control

CC1[C@@H]2C[C@@H]3O[C@@]34[C@H]3CCC5Cc6nc7c(nc6C[C@@]5(C)C3(O)CC(=O)[C@@]24CO[C@]12OC(C)(C)CC2O)CC1CC[C@@H]2C3=C[C@H]4O[C@@]5(O[C@@](C)(CO)C[C@@H]5O)C(C)[C@@]4(O)[C@]3(C)[C@@H](O)CC2[C@]1(C)C7 (some centres not stated)
T/C (dose: 12.5 micrograms/kg/injection, schedule: Q01DX009 (ip), vehicle: saline + alcohol): 107 % of control
T/C (dose: 25.0 micrograms/kg/injection, schedule: Q01DX009 (ip), vehicle: saline + alcohol): 109 % of control
T/C (dose: 50.0 micrograms/kg/injection, schedule: Q01DX009 (ip), vehicle: saline + alcohol): 114 % of control
T/C (dose: 100.0 micrograms/kg/injection, schedule: Q01DX009 (ip), vehicle: saline + alcohol): 116 % of control

CC(C)c1c2ccccc2nn1-c1ccccc1
T/C (dose: 100.0 mg/kg/injection, schedule: Q04DX003 (ip), vehicle: saline with Tween-80): 97 % of control
T/C (dose: 200.0 mg/kg/injection, schedule: Q04DX003 (ip), vehicle: saline with Tween-80): 89 % of control
T/C (dose: 400.0 mg/kg/injection, schedule: Q04DX003 (ip), vehicle: saline with Tween-80): 91 % of control

CN(C)CCCNC1=C(Cl)C(=O)C(NCCCN(C)C)=C(Cl)C1=O
T/C (dose: 6.25 mg/kg/injection, schedule: Q01DX009 (ip), vehicle: saline): 91 % of control
T/C (dose: 12.5 mg/kg/injection, schedule: Q01DX009 (ip), vehicle: saline): 94 % of control
T/C (dose: 25.0 mg/kg/injection, schedule: Q01DX009 (ip), vehicle: saline): 111 % of control
T/C [11]: 89 % of control

C[C@]12C=CC(=O)C=C1CC[C@@H]1[C@@H]2[C@@H](O)C[C@@]2(C)[C@H]1CC[C@]2(O)C(=O)CO
T/C [5]: 106 % of control
T/C [6]: 100 % of control
T/C [7]: 91 % of control
T/C (dose: 400.0 mg/kg/injection, schedule: Q01DX005 (ip), vehicle: Klucel (hydroxypropylcellulose) (HPC)): 105 % of control

COc1c(C=O)c2c(c(C=O)c1OC)OCO2
T/C (dose: 50.0 mg/kg/injection, schedule: Q01DX005 (ip), vehicle: saline with Tween-80): 100 % of control
T/C (dose: 100.0 mg/kg/injection, schedule: Q01DX005 (ip), vehicle: saline with Tween-80): 104 % of control
T/C (dose: 200.0 mg/kg/injection, schedule: Q01DX005 (ip), vehicle: saline with Tween-80): 99 % of control

CN(C)c1ccc(/C=C/c2ccnc3ccccc23)cc1Cl
T/C (dose: 12.5 mg/kg/injection, schedule: Q04DX003 (ip), vehicle: saline with Tween-80): 105 % of control
T/C (dose: 25.0 mg/kg/injection, schedule: Q04DX003 (ip), vehicle: saline with Tween-80): 96 % of control
T/C (dose: 50.0 mg/kg/injection, schedule: Q04DX003 (ip), vehicle: saline with Tween-80): 95 % of control

CCN(CC)CCN1C(=O)NC2(CCCCC2)C1=O
T/C (dose: 60.0 mg/kg/injection, schedule: Q01DX005 (ip), vehicle: saline with Tween-80): 101 % of control
T/C (dose: 120.0 mg/kg/injection, schedule: Q01DX005 (ip), vehicle: saline with Tween-80): 100 % of control
T/C (dose: 240.0 mg/kg/injection, schedule: Q01DX005 (ip), vehicle: saline with Tween-80): 99 % of control

NC1(C(=O)NCC(=O)O)CCCC1 (H-[Ac5c]-Gly-OH)
T/C (dose: 50.0 mg/kg/injection, schedule: Q04DX003 (ip), vehicle: Klucel (hydroxypropylcellulose) (HPC)): 99 % of control
T/C (dose: 100.0 mg/kg/injection, schedule: Q04DX003 (ip), vehicle: Klucel (hydroxypropylcellulose) (HPC)): 99 % of control
T/C (dose: 200.0 mg/kg/injection, schedule: Q04DX003 (ip), vehicle: Klucel (hydroxypropylcellulose) (HPC)): 97 % of control
T/C (dose: 400.0 mg/kg/injection, schedule: Q04DX003 (ip), vehicle: Klucel (hydroxypropylcellulose) (HPC)): 112 % of control
